This assay addresses Procathepsin L (Homo sapiens, UniProt P07711). The experiment in a line: Inhibition of cathepsin L.

Results on six molecules are retold here after ChEMBL document CHEMBL1143859, “Identification and synthesis of a unique thiocarbazate cathepsin L inhibitor” (Bioorg Med Chem Lett, 2008).

Structures are written as SMILES.

Chain of Procathepsin L (P07711 whole entry): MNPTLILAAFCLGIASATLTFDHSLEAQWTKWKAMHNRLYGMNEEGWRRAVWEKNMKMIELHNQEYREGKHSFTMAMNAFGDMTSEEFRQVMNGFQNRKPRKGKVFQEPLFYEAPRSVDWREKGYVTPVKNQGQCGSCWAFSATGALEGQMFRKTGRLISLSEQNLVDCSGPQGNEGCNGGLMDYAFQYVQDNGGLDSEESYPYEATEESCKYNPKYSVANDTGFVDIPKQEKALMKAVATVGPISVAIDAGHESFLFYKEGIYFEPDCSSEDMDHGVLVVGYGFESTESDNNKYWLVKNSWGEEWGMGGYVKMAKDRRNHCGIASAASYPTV

For orientation: IC50 means the concentration that inhibits the measured activity by half. Lower therefore signals higher potency. As for `CCc1ccccc1NC(=O)CSC(=O)NNC(=O)[C@@H](N)Cc1c[nH]c2ccccc12`, 133 nM corresponded to half-maximal inhibition (IC50).
As for `CN(C)C(=O)CSc1nnc([C@@H](N)Cc2c[nH]c3ccccc23)o1`, half-maximal inhibition (IC50) required 170 nM.
`CCN(CC)C(=O)CSc1nnc([C@@H](N)Cc2c[nH]c3ccccc23)o1` had an IC50 of 510 nM.
As for `Cc1cccc(NC(=O)CSc2nnc(C(N)Cc3c[nH]c4ccccc34)o2)c1C` (single isomer, unassigned), the figure is 300 nM; as for `Cc1ccc(NC(=O)CSc2nnc(C(N)Cc3c[nH]c4ccccc34)o2)c(C)c1` (single isomer, unassigned), 160 nM; as for `CCc1ccccc1NC(=O)CSc1nnc(C(N)Cc2c[nH]c3ccccc23)o1` (single isomer, unassigned), 130 nM.
